pIC50: −log10 of the molar value. ≈ marks a conversion by molar mass, not a printed value. Where two headings read alike, the source gives them in different places.

A short description of data set [1]: Kinetic solubility test in PBS 7.4. Format: physicochemical. Conditions: for solubility at 2 h: 25 °C, pH 7.4, aqueous buffer, kinetic from dmso stock. As to the method: 10 mM stock solutions of the test substances 6-2, 11-2, 17-2, Dxd, and the control drugs progesterone and diclofenac were prepared using DMSO respectively.
15 μL of 10 mM stock solution of each of the test substances was added to a corresponding position of a corresponding 96-well plate in a specified sequence. 485 μL of the PBS 7.4 was added to a corresponding vial on a sample plate. The experiment was run in duplicate. Each vial was additionally provided with a stirring rod and was plugged. Then, the sample plate was transferred in a thermostatic mixer, and oscillated at a revolving speed of 1,100 rpm at 25° C. for 2 h. 2 h later, the plug was removed, the stirring rod was attracted away with a large magnet, and then the sample was transferred from the sample plate to the filter plate. Negative pressure was generated using a vacuum pump to filter the sample. 5 μL of filtrate and 5 μL of blank DMSO were transferred to another sample plate, and then 490 μL of internal standard water (acetonitrile:water=1:1) containing the internal standard was added. Depending on peak shapes, a certain proportion of internal standard water may be used to dilute the sample diluent to obtain better peak shapes.
6 μL was transferred from the 10 mM DMSO stock solution plate to a blank plate, and was prepared into a 300 μM standard substance solution with addition of 194 μL of DMSO. 5 μL was transferred from the 300 μM standard substance solution plate to still another blank plate, and then 5 μL of blank buffer and 490 μL of the internal standard water containing the internal standard (acetonitrile:water=1:1) were added until a final concentration of the standard substance solution was 3 μM.
An injection plate was transferred on an injection tray of an autosampler to evaluate the sample by LC/MS analysis.
All calculations were performed using Microsoft Excel.
The sample filtrate was analyzed and quantified by qualitative and quantitative LC/MS of standard substance peaks at known concentrations. The calculation formula for the solubility values of the reference drugs and the test substances are as follows:
[Sample] is the compound concentration, DFSample refers to the sample dilution factor, [STD] is the standard substance concentration of the compound, AREAStd is the standard substance peak area of the compound, and AREASample is the peak area of the compound sample.

Data set [2] can be described thus: Pharmacokinetic test in SD rats. Conditions: male, Sprague-Dawley (SD), rat, in vivo, iv, 2 mg/kg. Here is the method:
After a single intravenous injection (dose: 2 mpk) of the compounds 6-2, 11-2, 17-2, and Dxd into male SD rats (blood collection time points: 0.083 h, 0.25 h, 0.5 h, 1 h, 2 h, 4 h, 8 h, and 24 h after IV administration, totaling 8 blood collection time points), average pharmacokinetic parameters in the plasma are as shown in Table 5: […]

A further data set has as its target T1, CYP3A4 (Homo sapiens, UniProt P08684).
T1 construct: from tissue; host or cells: human liver microsomes
The data set can be described thus: Inhibition on human hepatomicrosomes CYP3A4. It is filed as in vitro ADME. As to conditions: for IC50: read-out: 3A4M (IC50 μM), human hepatomicrosomes, substrate midazolam.

Data set [3] can be described thus: Stability of compounds in human plasma. Conditions: for Residual percentage (%) 1 h / Residual percentage (%) 2 h / Residual percentage (%) 6 h / Residual percentage (%) 24 h: 5 μmol/L. It is filed as in vitro ADME. Here is the method: • (1) 199 μL of human plasma was added to the culture plate of each cell. The culture plate was preheated to 37° C., and kept at this temperature for 15 min. • (2) After preincubation, 1 μL of 1 mmol/L each test compound and 1 μL of 1 mmol/L control compound were added to 199 μL of plasma, so that a final concentration of each test compound was 5 μmol/L and that of the control compound was 5 gmol/L. The final concentration of the organic solvent was 0.5%. The experiment would be duplicated twice. • (3) Reaction samples were incubated at 37° C. • (4) The reaction was stopped by adding 600 μL of cold methanol containing the internal standard at 0, 1, 2, 6, and 24 h. Each sample was vortex mixed for 10 min, and then centrifuged at 3,220 g for 30 min to precipitate the protein. […] Based on the signal response and peak shapes of liquid chromatography-mass spectrometry (LC-MS), the supernatant would be diluted with ultrapure water.
All calculations were performed using Microsoft Excel. The peak area ratio was determined from the chromatogram of extracted ions. The percentage of compounds remaining at each time point was calculated as per the following formula: […]

Data set [4] in a line: Stability of compounds in human plasma. Format: in vitro ADME. Conditions: 5 μmol/L.
Another data set addresses T2, CYP1A2 (Homo sapiens, UniProt P05177).
T2 sequence (P05177 1-516): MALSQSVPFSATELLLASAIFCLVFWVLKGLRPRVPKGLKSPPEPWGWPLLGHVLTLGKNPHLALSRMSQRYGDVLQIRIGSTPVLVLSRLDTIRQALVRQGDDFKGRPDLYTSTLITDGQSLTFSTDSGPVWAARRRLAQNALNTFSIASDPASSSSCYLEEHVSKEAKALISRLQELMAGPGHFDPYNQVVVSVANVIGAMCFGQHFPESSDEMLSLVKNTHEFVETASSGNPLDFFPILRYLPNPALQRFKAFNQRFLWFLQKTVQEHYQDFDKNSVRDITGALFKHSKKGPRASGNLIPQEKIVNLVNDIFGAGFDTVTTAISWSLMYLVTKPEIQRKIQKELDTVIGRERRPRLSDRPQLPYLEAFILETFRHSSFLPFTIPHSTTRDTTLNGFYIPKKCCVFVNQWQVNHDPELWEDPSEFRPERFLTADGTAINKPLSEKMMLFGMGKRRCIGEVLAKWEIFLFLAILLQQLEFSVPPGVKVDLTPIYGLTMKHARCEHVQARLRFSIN
As to the kind of experiment: Inhibition on human hepatomicrosomes CYP1A2.

The target in the next data set is CYP2D6 (Homo sapiens, UniProt P10635). As to the kind of experiment: Inhibition on human hepatomicrosomes CYP2D6.
Sequence of CYP2D6 (P10635 whole entry): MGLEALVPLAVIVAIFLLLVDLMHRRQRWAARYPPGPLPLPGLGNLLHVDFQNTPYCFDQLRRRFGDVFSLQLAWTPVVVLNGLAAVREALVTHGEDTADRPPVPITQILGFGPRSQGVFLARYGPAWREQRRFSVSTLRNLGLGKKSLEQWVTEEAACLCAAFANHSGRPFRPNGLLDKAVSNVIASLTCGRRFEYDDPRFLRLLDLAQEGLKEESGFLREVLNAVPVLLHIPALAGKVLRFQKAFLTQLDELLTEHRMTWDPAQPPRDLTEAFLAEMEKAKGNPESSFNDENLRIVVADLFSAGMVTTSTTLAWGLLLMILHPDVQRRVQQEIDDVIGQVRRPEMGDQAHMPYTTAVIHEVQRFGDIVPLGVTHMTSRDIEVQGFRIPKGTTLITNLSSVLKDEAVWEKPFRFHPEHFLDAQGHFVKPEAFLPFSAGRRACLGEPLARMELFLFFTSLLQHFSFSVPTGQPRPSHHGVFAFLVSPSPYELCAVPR

T1 sequence (P08684 whole entry): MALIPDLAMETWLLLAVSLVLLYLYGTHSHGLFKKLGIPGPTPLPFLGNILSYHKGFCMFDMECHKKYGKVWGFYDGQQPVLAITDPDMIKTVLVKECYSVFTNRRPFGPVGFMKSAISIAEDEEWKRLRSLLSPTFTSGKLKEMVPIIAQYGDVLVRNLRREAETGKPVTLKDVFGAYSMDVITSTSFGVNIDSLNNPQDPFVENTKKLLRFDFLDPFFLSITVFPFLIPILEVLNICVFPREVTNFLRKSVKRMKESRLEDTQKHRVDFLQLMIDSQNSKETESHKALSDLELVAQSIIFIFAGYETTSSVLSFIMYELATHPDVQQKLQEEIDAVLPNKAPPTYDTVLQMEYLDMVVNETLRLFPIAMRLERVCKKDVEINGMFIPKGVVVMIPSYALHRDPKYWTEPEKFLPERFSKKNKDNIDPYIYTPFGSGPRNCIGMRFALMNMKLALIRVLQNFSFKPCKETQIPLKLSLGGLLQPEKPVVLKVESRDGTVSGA

`CC[C@@]1(O)C(=O)OCc2c1cc1n(c2=O)Cc2c-1nc1cc(F)c(C3CC3)c3c1c2C(NC(=O)C[C@@H](C)O)CC3` (single isomer, unassigned) [Compound 17-2] returned a solubility at 2 h in data set [1] of 1.7 µM (≈ 0.931 µg/mL). In data set [2], this compound came in with an AUC(0-inf) of 2730 ng·h/mL, an AUC(0-t) of 2250 ng·h/mL, a C0 of 2690 ng/mL and a Vd of 1.4 L/kg. In data set [2], this compound gave a clearance of 12.3 mL/min/kg and a half-life of 1.64 h. Moreover, at CYP3A4, the pIC50 is less than 4.52 and the IC50 was more than 30 µM. Further, in data set [3], the “Residual percentage (%) 1 h” value was 90.07%, the “Residual percentage (%) 2 h” value was found to be 89.34%, the “Residual percentage (%) 6 h” value was 97.06% and the “Residual percentage (%) 24 h” value is on record as 102.21%. In addition, the “stability in human plasma (in words)” value in data set [3] is listed as “good stability in human plasma”. Moreover, the “Residual percentage (%) 4 h” value in data set [4] was 93.75%. Also, on CYP1A2, the pIC50 was less than 4.52. For the same compound, the pIC50 at CYP2D6 is less than 4.52.

Take `CC[C@@]1(O)C(=O)OCc2c1cc1n(c2=O)Cc2c-1nc1cc(F)c(C)c3c1c2C(NC(=O)C[C@@H](C)O)CCC3` (single isomer, unassigned) [Compound 6-2]: in data set [1], the “solubility in the PBS 7.4 compared with Dxd (in words)” value was “significantly better solubility in the PBS 7.4 than Dxd” and the solubility at 2 h was determined as 170 µM (≈ 91 µg/mL). In data set [2], the AUC(0-inf) was found to be 318 ng·h/mL, the AUC(0-t) came out at 314 ng·h/mL, the C0 was 677 ng/mL and the Vd came to 2.93 L/kg. In addition, in data set [2], the clearance stood at 108 mL/min/kg and the half-life is 0.39 h. Moreover, on CYP3A4, the pIC50 was less than 4.52 and the IC50 is more than 30 µM. Moreover, in data set [3], the “Residual percentage (%) 1 h” value is 96.62%, the “Residual percentage (%) 2 h” value worked out at 86.16%, the “Residual percentage (%) 6 h” value is given as 88.99% and the “Residual percentage (%) 24 h” value stood at 87.01%. Besides, the “stability in human plasma (in words)” value in data set [3] is listed as “good stability in human plasma”. Moreover, the “Residual percentage (%) 4 h” value in data set [4] is recorded as 93.65%. The pIC50 against CYP1A2 is less than 4.52. This compound also had a pIC50 at CYP2D6 of less than 4.52.

For the origin of these results see patent publication US20260209242A1, “CAMPTOTHECIN DERIVATIVE, PHARMACEUTICAL COMPOSITION, AND PREPARATION METHOD AND USE THEREFOR” (priority 2022, published 2026).
